The values below come from paper PMC7496690, “Structure‐Activity Relationship and Crystallographic Studies on 4‐Hydroxypyrimidine HIF Prolyl Hydroxylase Domain Inhibitors” (Chemmedchem, 2019).

Where two headings read alike, the source gives them in different places.

The target in one assay is T1, OGFOD1 (Homo sapiens, UniProt Q8N543).
T1 construct: made in house
T1 sequence (Q8N543 1-542): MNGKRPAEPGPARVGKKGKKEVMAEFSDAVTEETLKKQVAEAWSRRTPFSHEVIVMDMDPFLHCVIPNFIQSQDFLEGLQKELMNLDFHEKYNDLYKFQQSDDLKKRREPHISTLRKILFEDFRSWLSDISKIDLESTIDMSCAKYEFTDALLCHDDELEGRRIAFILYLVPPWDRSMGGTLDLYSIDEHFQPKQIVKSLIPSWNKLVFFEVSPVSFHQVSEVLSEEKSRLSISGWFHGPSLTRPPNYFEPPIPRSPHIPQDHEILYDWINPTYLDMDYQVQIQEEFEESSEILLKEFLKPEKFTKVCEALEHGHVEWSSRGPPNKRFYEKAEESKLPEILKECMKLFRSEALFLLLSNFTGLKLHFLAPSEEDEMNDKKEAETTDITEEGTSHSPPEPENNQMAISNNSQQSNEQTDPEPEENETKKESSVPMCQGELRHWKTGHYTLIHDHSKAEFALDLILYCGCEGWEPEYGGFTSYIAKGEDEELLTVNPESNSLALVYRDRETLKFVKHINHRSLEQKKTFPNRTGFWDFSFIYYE
The experiment in a line: MALDI-TOF MS OGFOD1 hydroxylation assay. The assay is classed as biochemical. Particulars: at 10 μM inhibitor. Here is the method:
Supplementary Information […]
acid. […] Assay plates were transferred to a
MALDI-TOF MS OGFOD1 Hydroxylation Assays […]
metal affinity chromatography.
The optimized hydroxylation […]
presence of Fe(II) (50 μM), 2OG (25 μM), L-ascorbic acid (100 μM) and RPS2351-70 (25 μM) in HEPES (50 mM, pH 7.5) at 37 °C for 15 min. Reagent solutions were made as previously reported.[23] Reactions were quenched with formic acid (1 % v/v). Samples were prepared by mixing reaction mixture (1 μL) with α-cyano-4-hydrocinnamic acid (CHCA) solution (water:acetonitrile 1:1) (1 μL). Dose-response was assessed in 8-point triplicates.
(§1) Data were analysed using GraphPad Prism 5.04.

In assay [1] the target is T2, viral collagen prolyl hydroxylase (vCPH) (Paramecium bursaria Chlorella virus 1, UniProt Q84406).
T2 construct: made in house
T2 sequence (Q84406 entry or part of it): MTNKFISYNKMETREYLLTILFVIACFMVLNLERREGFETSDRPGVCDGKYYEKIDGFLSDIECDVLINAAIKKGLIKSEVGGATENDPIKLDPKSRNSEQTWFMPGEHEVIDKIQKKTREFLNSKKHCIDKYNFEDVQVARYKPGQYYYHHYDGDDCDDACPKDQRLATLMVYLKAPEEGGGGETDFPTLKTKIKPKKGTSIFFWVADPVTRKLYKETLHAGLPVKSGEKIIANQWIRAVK
Kind of assay: MALDI-TOF MS vCPH hydroxylation assay. The class given is biochemical. Here is the method: Supplementary Information presence of Fe(II) (50 μM), 2OG (25 μM), L-ascorbic acid (100 μM) and RPS2351-70 (25 μM) in HEPES (50 mM, pH 7.5) at 37 °C for 15 min. Reagent solutions were made as previously reported.[23] Reactions were quenched with formic acid (1 % v/v). Samples were prepared by mixing reaction mixture (1 μL) with α-cyano-4-hydrocinnamic acid (CHCA) solution (water:acetonitrile 1:1) (1 μL). Dose-response was assessed in 8-point triplicates.
as §1

Assay [2] deals with T3, PHD2_181‐426 (Homo sapiens, UniProt Q9GZT9). Kind of assay: biochemical.
T3 sequence (Q9GZT9 181-426): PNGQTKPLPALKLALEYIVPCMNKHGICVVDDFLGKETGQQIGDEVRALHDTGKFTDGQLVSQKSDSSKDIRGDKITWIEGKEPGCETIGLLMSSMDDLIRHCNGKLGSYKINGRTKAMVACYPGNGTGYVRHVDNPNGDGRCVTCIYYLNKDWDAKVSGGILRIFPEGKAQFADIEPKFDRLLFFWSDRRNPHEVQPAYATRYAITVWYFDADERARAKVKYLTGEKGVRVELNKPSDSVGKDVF
For assay [3], the target named is T3, PHD2_181‐426. Kind of assay: biochemical. The source holds these as a separate data set.
The target in a further assay is FIH (Homo sapiens, UniProt Q9NWT6). Kind of assay: biochemical.
Chain of FIH (Q9NWT6 whole entry): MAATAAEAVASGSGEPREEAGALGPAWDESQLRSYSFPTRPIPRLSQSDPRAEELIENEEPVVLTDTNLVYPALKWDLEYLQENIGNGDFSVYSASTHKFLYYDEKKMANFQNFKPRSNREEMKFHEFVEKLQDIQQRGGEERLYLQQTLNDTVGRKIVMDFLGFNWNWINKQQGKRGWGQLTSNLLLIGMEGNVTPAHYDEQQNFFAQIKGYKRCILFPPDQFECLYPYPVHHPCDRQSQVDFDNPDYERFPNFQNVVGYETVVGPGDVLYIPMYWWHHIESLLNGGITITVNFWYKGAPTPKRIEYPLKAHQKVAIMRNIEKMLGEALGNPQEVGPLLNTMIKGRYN
For assay [4], the target named is T4, KDM4A (Homo sapiens, UniProt O75164).
T4 sequence (O75164 1-359 limits assumed): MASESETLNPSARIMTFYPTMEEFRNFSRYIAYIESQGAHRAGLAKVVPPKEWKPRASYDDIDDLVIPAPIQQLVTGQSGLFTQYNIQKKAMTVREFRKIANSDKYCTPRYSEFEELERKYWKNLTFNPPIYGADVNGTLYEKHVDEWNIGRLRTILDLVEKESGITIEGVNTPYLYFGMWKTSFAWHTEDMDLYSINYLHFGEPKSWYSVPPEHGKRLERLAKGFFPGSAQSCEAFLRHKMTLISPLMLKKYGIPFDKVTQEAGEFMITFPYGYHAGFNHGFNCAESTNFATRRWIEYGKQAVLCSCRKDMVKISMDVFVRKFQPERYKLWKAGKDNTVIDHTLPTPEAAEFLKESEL
Kind of assay: biochemical.
Experimental: RapidFire-MS KDM4A hydroxylation assays
(§2) (RF-MS). […] The KDM4A RF-MS assay measures
(§3) depletion of a histone H3-K9 (Me3) peptide substrate and appearance of the dimethyl peptide
(§4) oxoglutarate (2OG, code K3752) were from Sigma Aldrich (Poole, Dorset). The H3K9Me3 peptide
(§5) each day to a concentration of 50 mM in deionized water, ferrous ammonium sulphate was prepared
(§6) freshly each day by dissolving to 400 mM in 10 mM HCl and then dilution to 1 mM in deionized
(§7) water, 2OG was prepared freshly each day by dissolving in 10 mM in deionized water. The
(§8) KDM4A RF-MS assay was performed in 384-well plate format in assay buffer (50 mM MES pH
(§9) 7.0). All reagent dispenses were performed using a multidrop reagent dispenser (Thermo). Dilutions
(§10) of compounds were prepared using an ECHO 550 acoustic dispenser (Labcyte) and dry dispensed
(§11) (250 nL) in duplicate into 384-well polypropylene plates (Greiner Bio-One); DMSO (250 nL) was
(§12) dispensed into columns 12 and 2, 4-pyridinedicarboxylic acid (a known JmjC KDM inhibitor)[21]
(§13) (250 nL of 10 mM) was dispensed into column 24 as a no enzyme control. KDM4A (300 nM) was
(§14) minutes. Reaction was initiated by dispensing of 25 µL of assay buffer containing substrate and co-
(§15) factors (200 µM LAA, 20 µM FAS, 20 µM 2OG and 20 µM H3K9Me3 peptide); reactions were
(§16) allowed to progress for 50 minutes, then stopped by addition of 5 µL of 10% (v/v) aqueous formic
(§17) acid. The final assay concentration of DMSO was 0.5% (v/v). Assay plates were transferred to a
(§18) RapidFire RF365 high throughput sampling robot and samples aspirated under vacuum onto a C4
(§19) SPE cartridge. After an aqueous wash step (0.1% v/v formic acid in water) to remove non-volatile
(§20) buffer components from the C4 SPE, peptide was eluted from the C4 SPE in an organic wash step
(§21) cycle of sample aspiration, loading, wash and elution takes approximately 12 seconds. Peptide
(§22) charge states were monitored in the positive ESI mode with a drying gas temperature of 280°C, a
(§23) drying gas flow rate of 13 L/minute, nebulizer gas pressure of 40 PSI, sheath gas temperature of
(§24) 350°C, sheath gas flow rate of 12 L/min and a nozzle voltage of 1000V. Ion chromatogram data
(§25) was extracted for the substrate and the product methyl marks and peak area data for extracted ion
(§26) chromatograms were integrated using RapidFire Integrator software (Agilent). % conversion to the
(§27) dimethyl peptide product was calculated using the equation:
(§28) % conversion = 100 x dimethyl / (dimethyl + trimethyl peptide)
(§29) IC50 data were determined from non -linear regression plots using GraphPad prism 6.0

A further assay deals with Hep‐3B human cell line. Kind of assay: Cellular HIF-1α stabilization by immunoblotting. The class given is cell-based. Particulars: Hep3B, 3 hours, immunoblot. Here is the method:
Other factors including cell penetration and metabolism likely impact on cellular activity.
Supplementary Information
Figure S7: Immunoblots of Hep3B cells treated with 100 μM (A) and 20 μM (B) PHD inhibitors for 3 hours. The blots show protein levels of HIF1-α and β-actin at the 3rd hour. Protocols for cell culture and immunoblotting have been previously reported.[2] […]
Background: Immunoblotting shows a protein as a band on a membrane.

Assay [5] has as its target T4, KDM4A.
Experimental: RapidFire-MS KDM4A hydroxylation assays
as §2, §3, §4, §5, §6, §7, §8, §9, §10, §11, §12, §13, §14, §15, §16, §17, §18, §19, §20, §21, §22, §23, §24, §25, §26, §27, §28, §29

Experimental for FIH: chromatogram data were extracted for the +2 charge state and peak area data integrated using
RapidFire Integrator software (Agilent). The % conversion of the CODD peptide substrate to the +16 hydroxylated peptide was calculated using the equation:
determined from non-linear regression plots using GraphPad prism 6.0.
was normalized to no enzyme control.2
RapidFire-MS FIH hydroxylation assays
in the assay buffer (50 mM Tris-HCl pH 7.8, 50 mM NaCl) was pre - incubated for 15 minutes in
the presence of the inhibitors and the enzyme reaction initiated by addition of 20 μL substrate (200
μM L-ascorbic acid, 20 μM Fe(II) sulfate, 10 μM synthetic ankyrin peptide and 20 μM 2OG).[16]
After 15 minutes the reaction was quenched by addition of 4 μL 10% formic acid and the reaction
transferred to a RapidFire RF360 high throughput sampling robot. Samples were aspirated under
vacuum onto a C4 SPE cartridge. After an aqueous washing step (0.1% (v/v) aqueous formic acid),
to remove non-volatile buffer components from the C4 SPE cartridge , peptide was eluted in an
Ion chromatogram data was extracted for the non -hydroxylated
peptide substrate and the hydroxylated peptide product; the peak area data for extracted ion
chromatograms were integrated using RapidFire Integrator software. % conversion of substrate to
product was calculated in Microsoft excel and IC50 curves generated using Graph pad Prism.

With `Cc1nc(C(=O)NCC(=O)O)c(O)c2ccc(Oc3ccccc3)cc12` [compound 1, Roxadustat, reference compound], the “OGFOD1 activity relative to control” value at OGFOD1 was 100%.
For orientation: IC50 means the concentration needed to halve the response being measured. A higher IC50 goes with lower potency. For `CCOC(=O)c1cnc(-n2cccn2)nc1O` [compound 6, Ethyl 4-hydroxy-2-(1H-pyrazol-1-yl) pyrimidine-5-carboxylate], in assay [1], the “vCPH inhibition (in words)” value was “inactive”. The IC50 against PHD2_181‐426 [2], on PHD2_181‐426 [3], against FIH and against KDM4A [4] was greater than 25 µM throughout.
As for `O=C(NCc1ccc(Oc2ccccc2)cc1)c1cnc(-n2cccn2)nc1O` [compound 8, 4-Hydroxy-N-(4-phenoxybenzyl)-2-(1H-pyrazol-1-yl)pyrimidine-5-carboxamide], the IC50 in assay [1] was 2 ± 0.1 µM; at KDM4A [4], greater than 25 µM. The “OGFOD1 activity relative to control” value on OGFOD1 was 83±13%. In addition, the “cellular HIF‐1α stabilization” value in the assay with Hep‐3B human cell line (100 μM) is “strongest activity”.
As for `O=C(NCc1ccc(-c2ccccc2)cc1)c1cnc(-n2cccn2)nc1O` [compound 9, N-([1,1’-Biphenyl]-4-ylmethyl)-4-hydroxy-2-(1H-pyrazol-1-yl)pyrimidine-5-carboxamide], the figures for the IC50 at FIH and against KDM4A [4] were greater than 25 µM and 20 µM, respectively.
In turn, `O=C(NCc1ccccc1)c1cnc(-n2cccn2)nc1O` [compound 10, N-Benzyl-4-Hydroxy-2-(1H-pyrazol-1-yl)pyrimidine-5-carboxamide] displayed an IC50 against KDM4A [4] greater than 25 µM.
Still for that read-out and setting: then `O=C(NCc1ccccn1)c1cnc(-n2cccn2)nc1O` [compound 11, 4-Hydroxy-2-(1H-pyrazol-1-yl)-N-(pyridin-2-ylmethyl)pyrimidine-5-carboxamide], with 17 µM.
`O=C(NCC1CCCCC1)c1cnc(-n2cccn2)nc1O` [compound 12, N-(Cyclohexylmethyl)-4-hydroxy-2-(1H-pyrazol-1-yl)pyrimidine-5-carboxamide]: the IC50 against PHD2_181‐426 [2], at PHD2_181‐426 [3], against FIH and at KDM4A [4] was greater than 25 µM in each case.
In the case of `O=C(NCc1cccc(C(F)(F)F)c1)c1cnc(-n2cccn2)nc1O` [compound 13, 4-Hydroxy-2-(1H-pyrazol-1-yl)-N-(3-(trifluoromethyl)benzyl)pyrimidine-5-carboxamide], the “OGFOD1 activity relative to control” value on OGFOD1 is reported as 75±1%. The IC50 on FIH and against KDM4A [4] was greater than 25 µM each time.
As to `O=C(NCc1ccc2c(c1)OCO2)c1cnc(-n2cccn2)nc1O` [compound 14, N-(Benzo[d][1,3]dioxol-5-ylmethyl)-4-hydroxy-2-(1H-pyrazol-1-yl)pyrimidine-5-carboxamide], the IC50 came out at 0.261 ± 0.037 µM on PHD2_181‐426 [2], 0.274 ± 0.034 µM against PHD2_181‐426 [3] and 23 µM at KDM4A [4].
As for `O=C(Nc1ccc(-c2ccccc2)cc1)c1cnc(-n2cccn2)nc1O` [compound 15, N-([1,1’-Biphenyl]-4-yl)-4-hydroxy-2-(1H-pyrazol-1-yl)pyrimidine-5-carboxamide], the IC50 in assay [1] is 28.2 ± 1 µM; at KDM4A [4], greater than 25 µM. For the same compound, the entries for the “cellular HIF‐1α stabilization” value with Hep‐3B human cell line (20 μM) and in the assay on Hep‐3B human cell line (100 μM) were “manifested HIF‐1α stabilization” and “strongest activity”, respectively.
Take `O=C(N[C@@H](CO)c1ccccc1)c1cnc(-n2cccn2)nc1O` [compound 16]: the figures for the IC50 (in assay [1]; against KDM4A [4]) were 1.1 ± 0.1 µM and greater than 25 µM, respectively. Further, at OGFOD1, the “OGFOD1 activity relative to control” value is given as 41±5%. Moreover, the “cellular HIF‐1α stabilization” value in the assay on Hep‐3B human cell line (100 μM) was “inactive”.
With `O=C(N[C@H](CO)c1ccccc1)c1cnc(-n2cccn2)nc1O` [compound 17], the “OGFOD1 activity relative to control” value on OGFOD1 is reported as 70±3%. Also, the “cellular HIF‐1α stabilization” value with Hep‐3B human cell line (100 μM) was “modest HIF‐1α stabilization”. Moreover, at KDM4A [4], the IC50 came to 21 µM.
For `Cc1cccnc1CN1CCC2(CC1)C(=O)N(c1ccc(-c3ccccc3)cc1)C(=O)N2c1ncccn1` [compound 18, reference compound], the IC50 in assay [1] was greater than 100 µM; on KDM4A [5], 4.65 µM; on FIH it was greater than 25 µM. In addition, the “cellular HIF‐1α stabilization” value is “manifested HIF‐1α stabilization” with Hep‐3B human cell line (20 μM) and “strongest activity” in the assay on Hep‐3B human cell line (100 μM).
